Laboratory results as given in patent publication US7432089B2, “DNA encoding favin-adenine-dinucleotide-dependent-D-erythronate-4-phosphate-de-hydrogenase, pdxR, and microbial production of vitamin B6” (DSM IP Assets B.V., priority 2002, dated 2008).

Legend:
[1] = system: EN4P dehydrogenase in CFE of S. meliloti 16C18 or S. meliloti 16C18/pVK-pdxR; assay: EN4P dehydrogenase activity with NAD+ or NADP+ in CFE (increase of A340); format: biochemical; details: 1 mM coenzyme, 2.3 mM EN4P, any CFE, 21° C., 1 min
Protocol: (§1) EN4P dehydrogenase activity with NAD^+ or NADP^+ in CFE was determined by the formation of NADH or NADPH, which absorbs at 340 nm. Reaction mixture (150 μl) for assaying EN4P dehydrogenase activity contained 33 mM potassium phosphate buffer, pH 7.0, 2.3 mM EN4P, 1 mM NAD^+ or NADP^+, and CFE prepared from cells of S. meliloti 16C18 or S. meliloti 16C18/pVK-pdxR (each 0.16 mg protein). The increase of A340 was monitored at room temperature (21° C.) for 1 min in a UV-VIS recording spectrophotometer UV 2200 (Shimadzu Instruments, Inc., Kyoto, Japan), but the increase of A340 was not observed in enzyme reaction mixtures with any CFEs. Therefore, the both CFEs were determined to have no NAD^+ or NADP^+ dependent EN4P dehydrogenase activity. EN4P dehydrogenase activity with an electron acceptor in CFE was examined at room temperature (21° C.) by color change due to formation of reduced form from oxidized form of an electron acceptor. Reaction mixture (150 μl) contained 33 mM potassium phosphate buffer, pH 7.0, 2.3 mM EN4P, CFE (0.16 mg protein), and an electron acceptor such as 2,6-dichlorophenolindophenol (0.091 mM) (Wako Pure chemical Industries, Ltd., Osaka, Japan) (referred to as DCIP hereinafter) or ferricyanide (1.3 mM) (Wako Pure chemical Industries, Ltd., Osaka, Japan). […]

[2] = system: S. meliloti 16C18; assay: Growth of vitamin B6-deficient mutant on supplemented EMM plate; format: cell-based, Sinorhizobium meliloti
Protocol: These colonies were streaked on LBMC plates containing same antibiotics and incubated for 2 days at 30° C. The cells grown on the plates were inoculated on vitamin B6 assay plates (Table 1) containing Saccharomyces carlsbergensis ATCC 9080 as a vitamin B6 indicator strain. After incubation for 2 days at 30° C., one colony that had no halo of Saccharomyces carlsbergensis ATCC 9080 was obtained. The strain was named as S. meliloti 16C18. […] Further, S. meliloti 16C18 grew on EMM plate which was supplemented with 4 mg/L of 4-HT or 400 μg/L of PN.

[3] = system: pdxR gene product in CFE of S. meliloti 16C18/pVK-pdxR; assay: EN4P dehydrogenase activity with an electron acceptor in cell-free extract (color change); format: biochemical; details: 21° C.
Protocol: (§2) The frozen cells were thawed slowly, suspended with 200 ml of 10 mM Tris-HCl buffer, pH 7.5. The suspension was passed through a French pressure cell at 800 kg/cm^2. The homogenate was centrifuged to remove the cell debris at 37,000×g for 90 minutes and then each 165 ml of supernatants was used as cell-free extract (CFE) and the protein contents in S. meliloti 16C18 and S. meliloti 16C18/pVK-pdxR were 5,030 and 5,042 mg, respectively.
as §1

[4] = system: CFE of S. meliloti 16C18; assay: as above; format: biochemical; details: 21° C.
Protocol: as §2, §1

[5] = system: PdxR; assay: Substrate specificity of PdxR (DCIP reduction, A600); format: biochemical, S. meliloti
Protocol: Substrate specificity of PdxR was examined using the finally purified enzyme solution prepared in Example 2[C] (1). The standard enzyme assay was performed as follows: the basal reaction mixture (total volume 150 μl) consisting of 33 mM potassium phosphate buffer (pH 7.0), 2.4 μg proteins, 0.091 mM DCIP, and water up to a total volume of 144 μl, and was incubated for 1 minute at room temperature (21° C.). […]. The decrease in A600 was monitored at 21° C. for 1 minute for EN4P dehydrogenase read with a UV-VIS recording spectrophotometer UV 2200. One unit of the enzyme activity was defined as the amount of enzyme reduced 1 nmol of DCIP for 1 minute under the action of EN4P dehydrogenase in the assay system described above.

[6] = system: purified PdxR treated with ammonium sulfate; assay: Effect of flavin on discoloration of DCIP in reaction mixture; format: biochemical, S. meliloti
Protocol: To characterize a flavin binding to PdxR protein, ammonium sulfate fractionation was applied in the finally purified enzyme solution prepared in Example 2[C] (1) according to a method of Cammack [Biochem. J. 109:45-46 (1968)]. The enzyme solution (1 ml, containing 4.74 mg proteins) was dialyzed overnight against 1 liter of 80% (w/v) ammonium sulfate solution and its resultant precipitate in a dialysis membrane was collected by centrifugation at 34,800×g for 30 min, dissolved in 0.5 ml of 10 mM Tris-HCl, pH 7.5, and dialyzed overnight against 4 liters of the same buffer. The volume of dialyzed enzyme solution was brought to 1 ml with 10 mM Tris-HCl, pH 7.5.
The degree of discoloration was judged at 3 minutes.

[7] = system: EN4P dehydrogenase; assay: Cytochrome c as electron acceptor of EN4P dehydrogenase (absorption spectra 400-600 nm); format: biochemical, S. meliloti; details: 80 μM oxidized cytochrome c, 2.3 mM EN4P, CFE, 21° C., 2-20 min
Chain of EN4P dehydrogenase (as listed by the source): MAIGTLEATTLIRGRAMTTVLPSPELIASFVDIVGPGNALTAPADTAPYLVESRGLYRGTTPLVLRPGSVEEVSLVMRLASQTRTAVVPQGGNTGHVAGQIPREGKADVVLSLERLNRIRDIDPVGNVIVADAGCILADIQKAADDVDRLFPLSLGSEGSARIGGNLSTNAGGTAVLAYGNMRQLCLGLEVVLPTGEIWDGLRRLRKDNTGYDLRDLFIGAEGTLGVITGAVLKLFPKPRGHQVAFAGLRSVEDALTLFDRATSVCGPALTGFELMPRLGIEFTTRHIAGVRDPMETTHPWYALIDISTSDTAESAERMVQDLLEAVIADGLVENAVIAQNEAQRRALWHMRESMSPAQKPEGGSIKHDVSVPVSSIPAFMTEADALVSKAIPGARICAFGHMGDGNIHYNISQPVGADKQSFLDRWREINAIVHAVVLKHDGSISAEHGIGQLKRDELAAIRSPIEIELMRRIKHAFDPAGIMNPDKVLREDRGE
Protocol: Furthermore, possibility of cytochrome c instead of DCIP or ferricyanide in above-mentioned enzyme reaction system of EN4P dehydrogenase with an electron acceptor was examined by measuring change of absorption spectra in 400-600 nm spectral regions due to formation of reduced form from oxidized form of cytochrome c at room temperature (21° C.). Reaction mixture (150 μl) contained 33 mM potassium phosphate buffer, pH 7.0, 2.3 mM EN4P, 80 μM oxidized form of cytochrome c (from equine heart, Sigma Chemical Co.) as an electron acceptor, and CPE (0.16 mg protein). Absorption spectra of the reaction mixture of zero time and after 2, 5, 10, 15 and 20 min at room temperature (21° C.) were monitored with a UV-VIS recording spectrophotometer UV 2200. The absorption spectrum of zero time had only a broad peak at 525 nm, but spectra after 2 min appeared a new peak at 550 nm corresponding to reduced form of cytochrome c, and the absorption in the 550 nm region after 5, 10, 15 and 20 min was increased with time course.

[8] = substrate 2.28 mM, 0.091 mM DCIP, pH 7.0, 21° C.

## NC(=O)c1ccc[n+]([C@@H]2O[C@H](COP(=O)([O-])OP(=O)(O)OC[C@H]3O[C@@H](n4cnc5c(N)ncnc54)[C@H](OP(=O)(O)O)[C@@H]3O)[C@@H](O)[C@H]2O)c1 [NADP^+]
[1]
  Increase of A340 (formation of NADH or NADPH): not observed

## Cc1ncc(CO)c(CO)c1O [PN, pyridoxol]
[2]; EMM plate supplemented with 400 μg/L of PN
  Growth of S. meliloti 16C18 on supplemented EMM plate: grew

## O=C1C=CC(=Nc2cc(Cl)c(O)c(Cl)c2)C=C1 [DCIP, 2,6-dichlorophenolindophenol]
[3]
  Color change of electron acceptor in reaction mixture: No change
[4]; CFE of S. meliloti 16C18, + EN4P (2.3 mM)
  Color change of electron acceptor in reaction mixture: No change
[4]; CFE of S. meliloti 16C18, − EN4P
  Color change of electron acceptor in reaction mixture: No change

## O=C(O)C[C@H](O)C(=O)O [L-malic acid]
[5]; [8]
  Activity (nmol/min/mg protein): 0 nmol/min/mg protein

## CC(O)C(=O)O (racemic) [D,L-lactate]
[5]; pH 7
  Activity (nmol/min/mg protein): 0 nmol/min/mg protein

## NC(=O)c1ccc[n+]([C@@H]2O[C@H](COP(=O)([O-])OP(=O)(O)OC[C@H]3O[C@@H](n4cnc5c(N)ncnc54)[C@H](O)[C@@H]3O)[C@@H](O)[C@H]2O)c1 [NAD^+]
[1]
  Increase of A340 (formation of NADH or NADPH): not observed

## Cc1cc2nc3c(=O)[nH]c(=O)nc-3n(C[C@H](O)[C@H](O)[C@H](O)COP(=O)(O)OP(=O)(O)OC[C@H]3O[C@@H](n4cnc5c(N)ncnc54)[C@H](O)[C@@H]3O)c2cc1C [FAD, flavin adenine dinucleotide]
[6]; judged at 3 minutes, 21° C.
  Flavin concentration at which discoloration of DCIP occurred: greater than 0.014 μM

## Cc1cc2nc3c(=O)[nH]c(=O)nc-3n(C[C@H](O)[C@H](O)[C@H](O)COP(=O)(O)O)c2cc1C [FMN, flavin mononucleotide]
[6]; any FMN concentrations
  Discoloration of DCIP: did not occur

## N[C@H](C(=O)O)[C@H](O)CO [4-HT, 4-hydroxy-L-threonine]
[2]; EMM plate supplemented with 4 mg/L of 4-HT
  Growth of S. meliloti 16C18 on supplemented EMM plate: grew

## O=C(O)CO [glycolate]
[5]; [8]
  Activity (nmol/min/mg protein): 0 nmol/min/mg protein

## O=C(O)CC(C(=O)O)C(O)C(=O)O [D,L-isocitrate]
[5]; [8]
  Activity (nmol/min/mg protein): 0 nmol/min/mg protein

## O=C(O)COP(=O)(O)O [glycolic acid 2-phosphate]
[5]; [8]
  Activity (nmol/min/mg protein): 0 nmol/min/mg protein

## O=CC(=O)O [glyoxylate]
[5]; [8]
  Activity (nmol/min/mg protein): 0 nmol/min/mg protein

## cytochrome c
[7]
  Function as electron acceptor (reduced form peak at 550 nm): works as electron acceptor

## O=C(O)[C@H](O)[C@H](O)CO [D-erythronate]
[5]; pH 7
  Activity (nmol/min/mg protein): 0 nmol/min/mg protein

## O=C(O)[C@H](O)COP(=O)(O)O [D-(−)-glyceric acid 3-phosphate]
[5]; [8]
  Activity (nmol/min/mg protein): 0 nmol/min/mg protein

## O=C(O)[C@H](O)[C@H](O)COP(=O)(O)O [EN4P, D-erythronate 4-phosphate]
[5]; substrate 2.28 mM, 0.091 mM DCIP
  Oxidation by PdxR: oxidized
[5]; [8]
  Activity (nmol/min/mg protein): 946 nmol/min/mg protein

## C[C@H](O)C(=O)O [L-(+)-lactic acid]
[5]; [8]
  Activity (nmol/min/mg protein): 0 nmol/min/mg protein

## O=C(O)[C@H](O)CO [D(+) glyceric acid]
[5]; [8]
  Activity (nmol/min/mg protein): 0 nmol/min/mg protein
